“And” between values parts separate entries of the source, which are not always exact repeats. Identical values can stand only once. Like-named read-outs stand apart in the source and are kept apart here.
What was measured:
[1] = tested on: pancreatic cancer AsPC-1 cells; assay: MTT cell growth inhibition, AsPC-1; assay type: cell-based, human; conditions: AsPC-1, 72 h or 96 h
Description: FIG. 3. Effect of Orsaponin (OSW-1) on cell growth in human pancreatic cancer cells. Human pancreatic cancer AsPC-1 cells were treated with the indicated concentrations of OSW-1 for 72 h or 96 h. Cell growth inhibition was measured by MTT assay.
FIG. 4. The anticancer activity of Orsaponin (OSW-1) is not affected by NFκB expression in pancreatic cancer cells. Human pancreatic cancer cells AsPC-1 with constitutive activation of NFκB or inactivation of NFκB by dominant negative IκBα (AsPC-1/IκBα-ND) were treated with the indicated concentrations of OSW-1 for 72 h. Cell growth inhibition was measured by MTT assay.
Cells and Cell Lines. Various cancer cell lines were used including the human leukemia cell lines HL-60 and ML-1 cells; human lymphoma cell line Raji; human pancreatic cancer cells AsPC-1; and human ovarian cancer cells SKOV3; human colon cancer cells HCT116; as well as isolated CLL cells from patients; and lymphocytes from normal donors. […]
1. […] After the indicated number of days (usually 3 days or 72 hours) of exposure to OSW-1, cell survival was assessed by the addition of the MTT dye to the wells. […] Survival of cells under orsaponin treatment was evaluated as a percentage of control cell growth. […]
(§1) The effect of Orsaponin and 17-deoxyorsaponin in pancreatic cancer cells was also assessed. […] Cell growth inhibition was measured by MTT assay.

[2] = tested on: pancreatic cancer (Panco-2) cells; assay: MTT cell growth inhibition, Panco-2; assay type: cell-based; conditions: Mus musculus, Panco-2, 72 h
Description: (§2) 1. MTT Assays. For these assays either cancer cell lines were used. Alternatively, mononuclear cells from peripheral blood samples of CLL patients or normal donors were separated by Ficoll Hipaque fractionation and resuspended in DMEM complete medium. Malignant cells from various human cell lines (usually at 5×10^4 cells/ml) or mononuclear cells from peripheral blood of leukemia patients and healthy donors (1×10^6 cells/ml) were incubated in either αMEM or RPMI 1640 with or without various concentrations of OSW-1 in the range of 0-10 nM. Each experimental condition was done in triplicate. After the indicated number of days (usually 3 days or 72 hours) of exposure to OSW-1, cell survival was assessed by the addition of the MTT dye to the wells. The MTT dye changes its color depending on the presence of live cells in the well. Survival of cells under orsaponin treatment was evaluated as a percentage of control cell growth. Alternatively, one can also use the dye trypan-blue which penetrates dead cells thereby allowing one to count live cells under the microscope and estimating percentage survival.
as §1

[3] = tested on: malignant glioma U87-MG cells; assay: MTT cell growth inhibition, U87-MG glioma; assay type: cell-based, human
Description: as §2
To test the therapeutic selectivity of Orsaponin and 17-deoxyorsaponin, their effect on human brain tumor cells (U87 malignant glioma) and normal human astrocytes were compared. The normal human astrocytes were previously immortalized by transfection with hTER to allow a long-term culture in vitro. The antiproliferative effect of Orsaponin in human malignant glioma cells (U87-MG) and normal human astrocytes was examined. Cells were incubated with various concentrations of Orsaponin for 72 h. Cell growth inhibition was measured by MTT assay (FIG. 21).

[4] = tested on: C19 cells (ML-1 mutant with mitochondrial respiration defect); assay: Mitochondrial transmembrane potential (rhodamine-123), C19; assay type: cell-based, human; conditions: C19, 1 nM
Description: FIG. 11. Effect of orsaponin (OSW-1) on mitochondrial transmembrane potential ML-1 cells. The parental ML-1 line and its mutant with mitochondrial respiration defect, clone C19, were incubated with 1 nM OSW-1 for the indicated times. Change in mitochondrial transmembrane potential was measured by cytometry analysis, using rhodamine-123 as a potential-sensitive fluorescent probe.
3. Analysis of the Mitochondrial Transmembrane Potential. To evaluate the role of mitochondrial respiration in the cytotoxicity of OSW-1, changes in the potential of mitochondrial membrane were analyzed. Following the treatment of cells with OSW-1 for different time periods, cells were incubated with rhodamine-123 which is a potential-sensitive dye. Cytometric analysis was used to record changes in mitochondrial potential. […]
The effect of OSW-1 on mitochondrial transmembrane potential of ML-1 cells and the corresponding mitochondrial respiration defective mutant cell line C19 were analyzed by incubating with 1 nM OSW-1 for 4, 16 and 24 hours. Change in mitochondrial transmembrane potential was measured by cytometry analysis, using rhodamine-123 as a potential-sensitive fluorescent probe and are depicted in FIG. 11.

[5] = 5-day intravenous toxicity study in mice; assay type: in vivo, ICR mice; conditions: for Early Deaths: 15 dosed; for NOAEL at 5 days: ICR
Description: To assess the toxicity of orsaponin of the present invention, a 5-day intravenous study with Orsaponin in mice was conducted. […] Five mice from each group were scheduled to be sacrificed 3, 14, and 42 days after the last dose was administered.
Tissues (liver with gall bladder, kidneys, heart with aorta, lungs, spleen, skeletal muscle, brain, pituitary gland, eyes, pancreas, stomach, duodenum, jejunum, ileum, cecum, colon, mesenteric lymph node, salivary gland, mandibular lymph node, thymus, adrenal glands, larynx/pharynx/tongue, thyroid gland, parathyroid, trachea, esophagus, skin, mammary gland (females only), prostate, seminal vesicles, urinary bladder, testes, epididymides, ovary, uterus, cervix, femur/knee joint, sternum, bone marrow, and gross lesions) were processed for microscopic evaluation.
Individual animal organ weight was also measured. Calculation of percent of control using the relative weight of the individual organs per 100 grams of the terminal body weight (TBW) is included below in Tables 8 and 9. A change of greater than 20% difference was considered toxicologically important, and/or a clear dose response relationship.

[6] = male mice, early deaths day 4, individual animals, listed as Orsaponin

COc1ccc(C(=O)OC2C(OC3C(O)COC(O[C@H]4C[C@H]5[C@@H]6CC=C7C[C@@H](O)CC[C@]7(C)[C@H]6CC[C@]5(C)[C@@]4(O)[C@H](C)C(=O)CCC(C)C)C3OC(C)=O)OCC(O)C2O)cc1 (stereo partly drawn) [OSW-1, 3β, 16β, 17 α-trihydroxycholost-5-en-22-one 16-O-(2-O-4-methoxybenzoyl-β-D-xylopyranosyl)-(1->3)-(2-O-acetyl-α-L-arabinopyranoside)]
concentrations at which highly potent [1]: 0.1 to 5 nM
IC50 [2]: 0.1 nM
IC50 ([3]; Homo sapiens, U-87 MG, U87-MG, 72 h, MTT): < 0.1 nM
sensitivity of glioma cells compared with normal astrocytes ([3]; U87-MG vs normal human astrocytes): much more sensitive
change in mitochondrial transmembrane potential [4]: loss of mitochondrial transmembrane potential in only a small portion the cells
Early Deaths ([5]; Females, 10 μg/kg/day): 0
Early Deaths ([5]; Females, 20 μg/kg/day): 0
Early Deaths ([5]; Females, 30 μg/kg/day): 0
Early Deaths ([5]; Females, 40 μg/kg/day): 0
Spleen Relative Weight ([5]; Females, 14-Day, 20 μg/kg/day): 109% of Control
Liver Relative Weight ([5]; Females, 14-Day, 40 μg/kg/day): 105% of Control
Kidney Relative Weight ([5]; Females, 42-Day, 20 μg/kg/day): 116% of Control
Kidney Relative Weight ([5]; Females, 42-Day, 40 μg/kg/day): 105% of Control
Early Deaths ([5]; Males, 10 μg/kg/day): 0
Early Deaths ([5]; Males, 20 μg/kg/day): 7
Early Deaths ([5]; Males, 40 μg/kg/day): 15
Kidney Relative Weight ([5]; Males, 3-Day, 10 μg/kg/day): 103% of Control
Kidney Relative Weight ([5]; Males, 3-Day, 20 μg/kg/day): 116% of Control
TBW ([5]; Males, 14-Day, 10 μg/kg/day): 107% of Control
mortality or morbidity ([5]; female mice, 10, 20 or 40 μg/kg/day i.v.): no mortality or morbidity was observed
NOAEL at 5 days ([5]; female, mouse, in vivo, females, read-out: no-observed-adverse-effect level (NOAEL)): 0.04 mg/kg/day
no-observed-effect level (NOEL) ([5]; females): 40 µg/kg/day
NOEL ([5]; male mice): No NOEL
mortality and morbidity ([5]; male mice, 20 and 40 μg/kg/day, after the fourth injection): mortality and morbidity was observed
Hemolysis Sl, Md, Mk ([5]; male mice, early deaths day 4, individual animals (IDs 30xx, 40xx), 30 and 40 μg/kg/day groups, listed as Orsaponin): Md (6×) and Mk and Sl
ALK PHOS [5, 6]: 1896 IU/L and 1746 IU/L and 2290 IU/L and 3302 IU/L and >4500 IU/L and >1500 IU/L (2×) and 2001 IU/L and >2842 IU/L and 3339 IU/L and 4992 IU/L and 4326 IU/L
ALT [5, 6]: 1058 IU/L and 486 IU/L and >8800 IU/L (2×) and >4400 IU/L (2×) and 2060 IU/L and >6600 IU/L (2×) and 5642 IU/L and 4950 IU/L and 5596 IU/L
AST [5, 6]: 1794 IU/L and 1167 IU/L and >8800 IU/L (3×) and 3306 IU/L and >6600 IU/L (2×) and 4341 IU/L and >4400 IU/L and 5106 IU/L and 5864 IU/L
Alb [5, 6]: 4.2 gm/dl and 3 gm/dl and 3.4 gm/dl and 2.4 gm/dl (2×) and 3.8 gm/dl (2×) and 3.3 gm/dl and 3.9 gm/dl and 2.8 gm/dl and 2.7 gm/dl
CHLORIDE [5, 6]: 103 mmol/L and 110 mmol/L (3×) and 116 mmol/L and 105 mmol/L and 109 mmol/L and 107 mmol/L
Glob [5, 6]: 2.3 gm/dl and 1.8 gm/dl (2×) and 6.6 gm/dl and 1.4 gm/dl (2×) and 1.6 gm/dl and 1.5 gm/dl and 2.1 gm/dl and 1.2 gm/dl and 1 gm/dl
T. PROTEIN [5, 6]: 6.5 gm/dl and 4.8 gm/dl (2×) and 10 gm/dl and 3.8 gm/dl and 5.4 gm/dl and 5.6 gm/dl and 6 gm/dl (2×) and 4 gm/dl and 4.1 gm/dl and 3.4 gm/dl
NOAEL at 5 days ([5]; male, mouse, in vivo, males, 5 daily doses, based on pathology, read-out: NOAEL): 0.01 mg/kg/day
compound-related findings ([5]; mouse, in vivo): No Orsaponin-related findings were observed
interpretation of AST, ALT and total bilirubin ([5]; mouse, in vivo): severe liver disease
reversibility of hepatocellular lesion ([5]; mouse, in vivo): completely reversible

From patent US20050004044A1, “Use of orsaponin [3beta, 16beta, 17 alpha-trihydroxycholost-5-en-22-one 16-0-(2-0-4-methoxybenzoyl-beta-D-xylopyranosyl)-(1->3)-(2-0-acetyl-alpha-L-arabinopyranoside)] or OSW-1 and its derivatives for cancer therapeutics” (priority 2003, published 2005)
